Holding throughout (assay): DTP human tumour cell line panel, 48 h
The test system of test [1] is OVCAR-5 ovarian.
In test [2] the test system is HT29 colon.
Test [3] deals with SF-295 CNS.
In test [4] the test system is HOP-92 NSCLC.
Test [5] has as its system HOP-62 NSCLC.
For test [6], the system named is SK-MEL-28 melanoma.
For test [7], the system named is HCT-15 colon.
For test [8], the system named is RXF 393 renal.
The subject of test [9] is MCF7 breast.
The subject of test [10] is MDA-MB-231 breast.

Structures are written as SMILES.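 Tested at 5 concentrations; 48 h exposure; 96-well plates; endpoints linearly interpolated, else capped at highest concentration. At the GI50, growth is halved. TGI marks complete inhibition of growth.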 Bounds are passed on as bounds.

With `COc1ccccc1NC(=O)C1=C(C)NC(C)=C(C(=O)Nc2ccccc2OC)C1c1ccc(C(C)C)cc1`, the TGI in test [1], in [2], in test [3], in [4], in [5] and in [6] was greater than 100 µM in each case. Moreover, the TGI in [7] was greater than 100 µM.
With `O=C(/C=C/c1ccccc1F)C(c1ccccc1)c1ccccc1`, the concentration for total growth inhibition (TGI) in test [2] was 11.5 µM; in test [3], 5.91 µM; in test [4] it was 8.72 µM; in [6] it was 6.84 µM; in [7] it was 23.8 µM.
Turning to `C[Si](C)(C)/C(Br)=C\CCN1C(=O)CCC1O` (stereo not given), the TGI in test [8], in [1], in [2], in test [3], in test [4] and in [6] was greater than 100 µM throughout. In test [7], the TGI is greater than 100 µM.
Take `CN(C)/[N+]([O-])=N/Oc1cc(Nc2ccc(C(=O)O)cc2)c([N+](=O)[O-])cc1[N+](=O)[O-]`: the GI50 in [8] is 22.8 µM; in test [1], 38.5 µM; in test [9], 25.2 µM; in test [2], 44.2 µM; in [10], 17 µM; in test [3], 16.9 µM. In addition, the GI50 in test [5] is 18 µM; in test [6], 30.7 µM; in test [7], 19.6 µM. The TGI is 47.8 µM in test [8]; greater than 100 µM in test [1]; 69.7 µM in test [9]; greater than 100 µM in [2]; 31.3 µM in test [10]; 34 µM in test [3]. Moreover, the TGI in [5] worked out at 35 µM; in test [6] it was 57.5 µM; in test [7], 36.4 µM.
With `C=C1C(=O)O[C@H]2[C@H]1CC/C(COC(=O)CCC(=O)OC/C1=C/CC[C@@]3(C)O[C@H]3[C@H]3OC(=O)C(=C)[C@@H]3CC1)=C\CC[C@@]1(C)O[C@@H]21`, the GI50 was 0.661 µM in test [8]; 2.13 µM in [1]; 1.46 µM in [2]; 1.65 µM in test [10]; 10.5 µM in test [3]; 0.71 µM in [4]. Also, the GI50 in [5] is 3.21 µM; in test [6], 1.53 µM; in test [7], 1.54 µM. Also, the TGI in test [8] was found to be 2.17 µM; in [1], 6.03 µM; in test [2] it was 3.03 µM; in test [10] it was 3.72 µM; in [3] it was 25.3 µM; in test [4], 2.38 µM. Also, the TGI worked out at 10.6 µM in [5], 3.97 µM in test [6] and 3.58 µM in [7].
As to `Cc1ccc(S(=O)(=O)N2CCCCC2CCO)cc1` (stereo not given), the TGI in test [8], in [1], in test [2], in test [3], in test [4] and in test [5] was greater than 100 µM throughout. In [7], the TGI is greater than 100 µM.
Take `O=C1C(c2ccccc2)=C(c2ccccc2)C(c2ccccc2)/C1=C1\C(=O)C(c2ccccc2)=C(c2ccccc2)C1c1ccccc1` (stereo not given): the TGI in [8], in [1], in test [2], in test [3], in [4] and in [5] was greater than 100 µM in each case. Moreover, the TGI in test [6] and in test [7] was greater than 100 µM throughout.
For the compound `CCOc1ccc(NC(=O)C2=C(C)NC(C)=C(C(=O)Nc3ccc(OCC)cc3)C2c2ccc([N+](=O)[O-])cc2)cc1`, the TGI in test [8] was greater than 100 µM; in test [1] it was 86.9 µM; in [2] it was 86 µM; in [3] it was greater than 100 µM; in test [4] it was 58.6 µM; in test [5] it was greater than 100 µM. For the same compound, in [6], the total growth inhibition concentration (TGI) is greater than 100 µM.
Regarding `COc1ccc2c(CNCCCCO)cc3cc4c(cc3c2c1)OCO4`, the GI50 was 0.68 µM in test [8]; 2.72 µM in [1]; 1.29 µM in [2]; 2.06 µM in [10]; 0.624 µM in [3]; 0.598 µM in test [4]. Also, the GI50 in [5] is 1.98 µM; in test [6], 4.93 µM; in test [7], 1.43 µM. In addition, the TGI is 2.49 µM in test [8]; 8.95 µM in test [1]; 6.87 µM in test [2]; 6.2 µM in test [10]; 4.68 µM in test [3]; 4.4 µM in test [4]. Besides, the TGI turned out to be 10.6 µM in test [5], 11 µM in test [6] and 8.61 µM in test [7].
As for `CC(=O)O[C@H]1CC[C@@]2(C)C(=CC[C@@H]3C2CC[C@]2(C)Nc4oncc4CC32)C1` (stereo not given in full), the concentration for total growth inhibition (TGI) in [8], in test [1], in [2], in test [3], in [5] and in [6] was greater than 100 µM each time. The same compound yielded a total growth inhibition concentration (TGI) in test [7] greater than 100 µM.
`Cc1cc(Cl)ccc1NC(=O)C1C(=O)N(c2ccc(Cl)cc2C)C(=O)/C1=N\N` (stereo not given): the TGI in test [8], in test [1], in [2], in [3], in test [4] and in test [5] was greater than 100 µM in each case. Further, the TGI in test [6] and in test [7] was greater than 100 µM each time.
For the compound `Cc1cccc(C)c1NC(=O)C(=O)C1C(=O)N(c2ccccc2)N=C1N` (stereo not given), the concentration for total growth inhibition (TGI) in [8], in test [1], in [2], in test [3], in test [4] and in test [5] was greater than 100 µM each time. The TGI in test [6] and in test [7] was greater than 100 µM throughout.
In the case of `N#CC(C#N)=C1NC(=O)C(c2ccccc2)C(=O)N1` (stereo not given), the concentration for total growth inhibition (TGI) in test [8], in test [1], in test [2], in test [3], in test [4] and in test [5] was greater than 100 µM in each case. The compound also came in with a total growth inhibition concentration (TGI) in test [7] greater than 100 µM.

(Values after PubChem BioAssay (NCI).)
